# Measurements taken from US11780832B2, “Lactivicin compounds, their preparation and use as antibacterial agents” (priority 2021, dated 2023).
# Key:
# Assay type in all cases: cell-based
# [1] = test system: Klebsiella oxytoca KPC-2, TEM-1; assay: MIC, CLSI broth microdilution
# Outline: (§1)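 Inhibitory concentrations were measured in broth following CLSI microdilution rules. Test organisms, each with known resistance determinants, were inoculated at a final 5×10^5 CFU/mL into wells holding compound at final concentrations from 16 down to 0.0125 μg/mL.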
# [2] = test system: Escherichia coli CTX-M-15; assay: MIC, CLSI broth microdilution; settings: CTXM15
# Outline: as §1
# [3] = test system: Pseudomonas aeruginosa ATCC 27853; assay: MIC, CLSI broth microdilution; settings: ATCC27853
# Outline: as §1
# [4] = test system: Acinetobacter baumannii ATCC 19606; assay: MIC, CLSI broth microdilution; settings: ATCC19606
# Outline: as §1
# [5] = test system: Serratia marcescens AmpC overexpressed; assay: MIC, CLSI broth microdilution
# Outline: (§2)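 MIC values come from CLSI broth microdilution against clinical and ATCC isolates whose resistance genes had been characterized. Compound dilutions were two-fold, with final concentrations between 16 and 0.0125 μg/mL.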
# [6] = test system: Klebsiella pneumoniae OXA-48, SHV-1; assay: MIC, CLSI broth microdilution
# Outline: as §2
# [7] = test system: Escherichia coli ATCC 25922; assay: MIC, CLSI broth microdilution; settings: ATCC25922
# Outline: as §1
# [8] = test system: Enterobacter cloacae species complex NDM-1; assay: MIC, CLSI broth microdilution
# Outline: as §1
# Escherichia coli CMY-2 = assay: MIC, CLSI broth microdilution; settings: CMY2
# Outline: as §1
# [9] = test system: Pseudomonas aeruginosa AmpC overexpressed; assay: MIC, CLSI broth microdilution
# Outline: as §2
# [10] = test system: Proteus mirabilis CMY-DHA; assay: Synergistic activity: MIC in the presence of Avibactam; settings: row r36, in the presence of Avibactam @ 4 μg/mL
# Method: (§3) Isolates were sub-cultured onto appropriate media and stocked in skim milk at −80° C. Following two subcultures from frozen stock, in vitro antimicrobial susceptibility testing was performed using the Clinical and Laboratory Standards Institute (CLSI) broth microdilution method. Briefly, fresh cultures were suspended in culture media to give a final stock inoculum size of 5×10^7 colony forming units per milliliter of broth (CFU/mL). Test compounds were prepared at a stock solution concentration equal to 128 μg/mL, then diluted to give a final an initial working concentration of 32 μg/mL. 100 μL of the stock solutions were added to the first wells in a 96-well plate and were then diluted using a 2-fold dilution method to give a range of 32-0.025 μg/mL. 100 μL of the bacterial suspensions were then added to the 96-well plates to give a final working inoculum size of 5×10^5 CFU/mL. The final compound concentration range was 16-0.0125 μg/mL. […] MICs for comparator agents were determined using custom-designed, in-house prepared 96-well broth microdilution panels.
# (§4) The same method used to test the activity of the claimed compounds was used to determine their synergistic activity when combined with a β-lactamase inhibitor except that either a fixed concentration or fixed ratio of a β-lactamase inhibitor was added to the 96-well plates prior to adding the bacteria cultures. Synergistic activity was defined as the reduction of MIC of a given compound when tested using the β-lactamase inhibitor versus testing the compound in the absence of a β-lactamase inhibitor.
# [11] = test system: Citrobacter freundii species complex Elevated AmpC; assay: as above; settings: row r16, in the presence of Avibactam @ 4 μg/mL
# Method: as §3, §4
# [12] = test system: Escherichia coli Elevated AmpC; assay: as above
# Method: as §3, §4
# [13] = test system: Enterobacter cloacae species complex Elevated AmpC; assay: as above
# Method: as §3, §4
# Escherichia coli CMY-DHA [14] = assay: as above
# Method: as §3, §4
# [15] = test system: Klebsiella pneumoniae CMY-DHA; assay: as above; settings: row r32, in the presence of Avibactam @ 4 μg/mL
# Method: as §3, §4
# [16] = test system: Citrobacter freundii species complex Elevated AmpC; assay: MIC against Elevated AmpC producing strains, compound alone; settings: row r16
# Method: (§5) Gram-negative and Gram-positive bacterial strains used during the in vitro minimum inhibitory concentration (MIC) determination were obtained either from the American Type Culture Collection (ATCC) or from clinical specimens. All strains were characterized genotypically and the respective antibiotic resistance markers for each strain were identified.
# as §3
# [17] = test system: Escherichia coli Elevated AmpC; assay: as above
# Method: as §5, §3
# [18] = test system: Enterobacter cloacae species complex Elevated AmpC; assay: as above
# Method: as §5, §3
# [19] = test system: Proteus mirabilis CMY-DHA; assay: MIC against CMY-DHA producing strains, compound alone; settings: row r36
# Method: as §5, §3
# Escherichia coli CMY-DHA [20] = assay: as above
# Method: as §5, §3
# [21] = test system: Klebsiella pneumoniae CMY-DHA; assay: as above; settings: row r32
# Method: as §5, §3
structure (smiles),measurement,setting,value
"Nc1nc(/C(=N/OC2(C(=O)O)CC2)C(=O)N[C@H]2CON(C3(C(=O)O)C[C@H](N4C(=O)c5cc(O)c(O)cc5C4=O)C(=O)O3)C2=O)cs1 (stereo partly drawn) [Cmpd 1, (4S)-2-[(4S)-4-{[(2Z)-2-(2-amino-1,3-thiazol-4-yl)-2-{[(1-carboxycyclopropyl)oxy]imino}acetyl]amino}-3-oxo-1,2-oxazolidin-2-yl]-4-(5,6-dihydroxy-1,3-dioxo-1,3-dihydro-2H-isoindol-2-yl)-5-oxooxolane-2-carboxylic acid]",MIC,[1],0.0149 µg/mL
same,MIC,[2],1 µg/mL
same,MIC,[3],0.12 µg/mL
same,MIC,[4],0.03 µg/mL
same,MIC,[5],0.12 µg/mL
same,MIC,[6],0.0149 µg/mL
same,MIC,[7],0.06 µg/mL
same,MIC,[8],0.12 µg/mL
same,MIC,Escherichia coli CMY-2,1 µg/mL
same,MIC,[9],0.5 µg/mL
same,MIC,[10],0.03 µg/mL
same,MIC,[11],0.03 µg/mL
same,MIC,"[12]; strain of row r10, in the presence of Avibactam @ 4 μg/mL",<=0.008 μg/mL
same,MIC,"[12]; strain of row r11, in the presence of Avibactam @ 4 μg/mL",<=0.008 μg/mL
same,MIC,"[12]; strain of row r12, in the presence of Avibactam @ 4 μg/mL",0.015 µg/mL
same,MIC,"[12]; strain of row r13, in the presence of Avibactam @ 4 μg/mL",<=0.008 μg/mL
same,MIC,"[12]; strain of row r14, in the presence of Avibactam @ 4 μg/mL",<=0.008 μg/mL
same,MIC,"[12]; strain of row r15, in the presence of Avibactam @ 4 μg/mL",0.06 µg/mL
same,MIC,[13]; in the presence of Avibactam @ 4 μg/mL,0.06 µg/mL
same,MIC,"[13]; strain of row r7, in the presence of Avibactam @ 4 μg/mL",0.12 µg/mL
same,MIC,"[13]; strain of row r20, in the presence of Avibactam @ 4 μg/mL",<=0.008 μg/mL
same,MIC,"Escherichia coli CMY-DHA [14]; strain of row r26, in the presence of Avibactam @ 4 μg/mL",0.03 µg/mL
same,MIC,"Escherichia coli CMY-DHA [14]; strain of row r27, in the presence of Avibactam @ 4 μg/mL",<=0.008 μg/mL
same,MIC,"Escherichia coli CMY-DHA [14]; strain of row r28, in the presence of Avibactam @ 4 μg/mL",<=0.008 μg/mL
same,MIC,"Escherichia coli CMY-DHA [14]; strain of row r29, in the presence of Avibactam @ 4 μg/mL",0.06 µg/mL
same,MIC,"Escherichia coli CMY-DHA [14]; strain of row r30, in the presence of Avibactam @ 4 μg/mL",<=0.008 μg/mL
same,MIC,"Escherichia coli CMY-DHA [14]; strain of row r31, in the presence of Avibactam @ 4 μg/mL",0.06 µg/mL
same,MIC,"Escherichia coli CMY-DHA [14]; strain of row r34, in the presence of Avibactam @ 4 μg/mL",<=0.008 μg/mL
same,MIC,"Escherichia coli CMY-DHA [14]; strain of row r35, in the presence of Avibactam @ 4 μg/mL",<=0.008 μg/mL
same,MIC,[15],0.5 µg/mL
same,MIC,[16],0.5 µg/mL
same,MIC,[17]; strain of row r10,0.015 µg/mL
same,MIC,[17]; strain of row r11,0.25 µg/mL
same,MIC,[17]; strain of row r12,0.5 µg/mL
same,MIC,[17]; strain of row r13,0.06 µg/mL
same,MIC,[17]; strain of row r14,0.06 µg/mL
same,MIC,[17]; strain of row r15,0.12 µg/mL
same,MIC,[18],0.5 µg/mL
same,MIC,[18]; strain of row r7,2 µg/mL
same,MIC,[18]; strain of row r20,0.25 µg/mL
same,MIC,[19],2 µg/mL
same,MIC,Escherichia coli CMY-DHA [20]; strain of row r26,1 µg/mL
same,MIC,Escherichia coli CMY-DHA [20]; strain of row r27,0.06 µg/mL
same,MIC,Escherichia coli CMY-DHA [20]; strain of row r28,0.25 µg/mL
same,MIC,Escherichia coli CMY-DHA [20]; strain of row r29,0.5 µg/mL
same,MIC,Escherichia coli CMY-DHA [20]; strain of row r30,0.5 µg/mL
same,MIC,Escherichia coli CMY-DHA [20]; strain of row r31,2 µg/mL
same,MIC,Escherichia coli CMY-DHA [20]; strain of row r34,0.25 µg/mL
same,MIC,Escherichia coli CMY-DHA [20]; strain of row r35,0.25 µg/mL
same,MIC,[21],1 µg/mL
